From patent publication US12643895B2, “Heteroaryl-substituted pyrazolo-pyridine protein kinase inhibitors for promoting liver regeneration or reducing or preventing hepatocyte death” (HepaRegeniX GmbH, priority 2019, dated 2026) come the findings set out here.

Type in all cases: biochemical
The target of one assay is T1, MKK4 (Homo sapiens, UniProt P45985).
T1 construct: purchased ProQinase GmbH, Freiburg, Germany (assay service)
T1 sequence (P45985 1-399): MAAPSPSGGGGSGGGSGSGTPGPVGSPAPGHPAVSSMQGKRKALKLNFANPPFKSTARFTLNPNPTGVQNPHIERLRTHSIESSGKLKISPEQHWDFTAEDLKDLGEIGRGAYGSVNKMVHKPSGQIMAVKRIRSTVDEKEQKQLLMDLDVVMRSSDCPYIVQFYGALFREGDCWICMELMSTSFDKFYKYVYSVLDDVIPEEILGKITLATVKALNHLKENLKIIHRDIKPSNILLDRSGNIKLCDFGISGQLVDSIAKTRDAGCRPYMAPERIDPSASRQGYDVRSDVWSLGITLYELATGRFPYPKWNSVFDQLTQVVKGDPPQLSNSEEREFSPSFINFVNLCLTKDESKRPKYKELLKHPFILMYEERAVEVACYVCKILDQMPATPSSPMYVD
The assay can be described thus: 33PanQinase radiometric kinase assay, MKK4. The note with it: category based on IC50-values; ATP at apparent Km; read-out: Potency MKK4. Here is the method:
(§1) The kinase activities of the compounds of the invention were measured using the 33PanQinase® Assay Service provided by ProQinase GmbH, Freiburg, Germany. Details of the assay conditions are disclosed on the website of ProQinase (https://www.proqinase.com/products-services-biochemical-assay-services/kinase-assays). In brief, all kinase assays were performed in 96-well FlashPlates™ from PerkinElmer (Boston, MA, USA) in a 50 μl reaction volume. The reaction cocktail was pipetted in four steps in the following order: • 20 μl of assay buffer (standard buffer) • 5 μl of ATP solution (in H2O) • 5 μl of test compound (in 10% DMSO) • 20 μl enzyme/substrate mix
(§2) The reaction cocktails were incubated at 30° C. for 60 minutes. The reaction is stopped with 50 μl of 2% (v/v) H3PO4, plates were aspirated and washed two times with 200 μl 0.9% (w/v) NaCl. Incorporation of ^33Pi was determined with a microplate scintillation counter (Microbeta, Wallac).
(§3) All assays were performed with a BeckmanCoulter/SAGIAN™ Core System.
(§4) In case of single concentration assays, the potency of the test compound is expressed as % residual activity. […] The fitting method used was a least-squares fit.

In a further assay the target is T2, BRaf (Homo sapiens, UniProt P15056).
T2 construct: purchased ProQinase GmbH, Freiburg, Germany (assay service)
T2 sequence (P15056 whole entry): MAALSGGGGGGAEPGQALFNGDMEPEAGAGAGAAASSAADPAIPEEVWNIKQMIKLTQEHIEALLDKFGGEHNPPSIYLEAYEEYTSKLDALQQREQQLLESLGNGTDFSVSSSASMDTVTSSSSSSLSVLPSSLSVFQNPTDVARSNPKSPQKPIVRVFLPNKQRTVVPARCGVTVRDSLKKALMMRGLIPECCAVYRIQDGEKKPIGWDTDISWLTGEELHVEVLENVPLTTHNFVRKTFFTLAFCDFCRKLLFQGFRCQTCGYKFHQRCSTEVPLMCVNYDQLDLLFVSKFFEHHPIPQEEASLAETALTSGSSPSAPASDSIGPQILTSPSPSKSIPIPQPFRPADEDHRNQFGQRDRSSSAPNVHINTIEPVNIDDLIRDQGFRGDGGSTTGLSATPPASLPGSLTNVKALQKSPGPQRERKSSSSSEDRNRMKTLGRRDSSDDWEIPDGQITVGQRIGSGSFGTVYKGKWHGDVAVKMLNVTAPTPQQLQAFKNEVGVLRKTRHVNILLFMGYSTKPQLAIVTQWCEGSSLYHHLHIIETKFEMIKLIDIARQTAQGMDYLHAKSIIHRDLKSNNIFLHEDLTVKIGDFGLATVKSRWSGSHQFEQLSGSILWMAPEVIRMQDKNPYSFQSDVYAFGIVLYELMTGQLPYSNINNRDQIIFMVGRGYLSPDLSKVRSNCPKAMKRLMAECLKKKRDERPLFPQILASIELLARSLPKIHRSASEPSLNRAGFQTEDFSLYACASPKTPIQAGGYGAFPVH
The assay can be described thus: 33PanQinase radiometric kinase assay, BRaf (off-target). As to conditions: ratio IC50(off-target)/IC50(MKK4). Here is the method:
as §1, §2, §3, §4
(§5) Selectivity of test compounds against BRaf, JNK1 and MKK7, altogether denominated as off-targets was calculated by the ratio of IC50 (off-target)/IC50 (MKK4) and categorized as follows: […]

For a further assay, the target named is T3, JNK1 (Homo sapiens, UniProt P45983).
T3 construct: purchased ProQinase GmbH, Freiburg, Germany (assay service)
T3 sequence (P45983 whole entry): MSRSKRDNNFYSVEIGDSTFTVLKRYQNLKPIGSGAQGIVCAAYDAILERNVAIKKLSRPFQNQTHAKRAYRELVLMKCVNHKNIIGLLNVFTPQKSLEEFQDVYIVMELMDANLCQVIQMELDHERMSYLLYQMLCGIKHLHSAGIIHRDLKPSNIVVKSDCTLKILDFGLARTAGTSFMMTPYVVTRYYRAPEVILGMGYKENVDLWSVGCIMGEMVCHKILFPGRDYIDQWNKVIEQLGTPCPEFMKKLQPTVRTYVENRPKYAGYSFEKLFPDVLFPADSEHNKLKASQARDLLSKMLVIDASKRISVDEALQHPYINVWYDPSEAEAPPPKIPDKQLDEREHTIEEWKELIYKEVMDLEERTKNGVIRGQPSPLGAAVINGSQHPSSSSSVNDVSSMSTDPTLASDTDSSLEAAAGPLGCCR
The assay can be described thus: 33PanQinase radiometric kinase assay, JNK1 (off-target). As to conditions: ratio IC50(off-target)/IC50(MKK4). Here is the method:
as §1, §2, §3, §4, §5

The target in a further assay is T4, MKK7 (Homo sapiens, UniProt O14733).
T4 construct: purchased ProQinase GmbH, Freiburg, Germany (assay service)
T4 sequence (O14733 1-419): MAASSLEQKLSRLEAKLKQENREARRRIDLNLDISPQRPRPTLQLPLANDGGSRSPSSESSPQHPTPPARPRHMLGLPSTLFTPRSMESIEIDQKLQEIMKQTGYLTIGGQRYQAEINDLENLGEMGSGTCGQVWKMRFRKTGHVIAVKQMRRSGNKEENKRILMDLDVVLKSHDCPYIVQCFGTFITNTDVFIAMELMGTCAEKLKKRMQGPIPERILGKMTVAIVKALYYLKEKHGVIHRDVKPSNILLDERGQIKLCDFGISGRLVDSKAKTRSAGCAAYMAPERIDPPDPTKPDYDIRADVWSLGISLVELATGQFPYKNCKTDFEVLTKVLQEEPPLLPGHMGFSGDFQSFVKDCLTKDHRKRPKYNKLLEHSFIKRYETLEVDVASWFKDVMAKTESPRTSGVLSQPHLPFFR
The assay can be described thus: 33PanQinase radiometric kinase assay, MKK7 (off-target). The note with it: ratio IC50(off-target)/IC50(MKK4). As to the method: as §1, §2, §3, §4, §5

For `CCCS(=O)(=O)Nc1c(F)ccc(C(=O)c2n[nH]c3ncc(-c4ccncc4CC)cc23)c1F` [Example 36, N-[3-[5-(3-ethyl-4-pyridyl)-1H-pyrazolo[3,4-b]pyridine-3-carbonyl]-2,6-difluoro-phenyl]propane-1-sulfonamide], on MKK4, the IC50 was less than 100 nM. Further, the “Selectivity Braf” value on BRaf was “+++ (IC50(off-target)/IC50(MKK4) > 100)”. The “Selectivity JNK1” value at JNK1 is recorded as “+++ (IC50(off-target)/IC50(MKK4) > 100)”. For the same molecule, the “Selectivity MKK7” value at MKK7 was “+++ (IC50(off-target)/IC50(MKK4) > 100)”.
With `CCCS(=O)(=O)Nc1c(F)ccc(C(=O)c2n[nH]c3ncc(-c4ccncc4C#N)cc23)c1F` [Example 37, N-[3-[5-(3-cyano-4-pyridyl)-1H-pyrazolo[3,4-b]pyridine-3-carbonyl]-2,6-difluoro-phenyl]propane-1-sulfonamide], the IC50 on MKK4 was less than 100 nM. Also, the “Selectivity Braf” value on BRaf is “+++ (IC50(off-target)/IC50(MKK4) > 100)”. Besides, the “Selectivity JNK1” value at JNK1 is reported as “+++ (IC50(off-target)/IC50(MKK4) > 100)”. Moreover, the “Selectivity MKK7” value on MKK7 is “+++ (IC50(off-target)/IC50(MKK4) > 100)”.
